# Results taken from US8211945B2, “Carba-sugar amine derivative and glycolipid metabolic disorder treating agent containing the same as active ingredient” (Seikagaku Corporation, priority 2001, dated 2012).
# Key:
# [1] = target: T1, human normal β-galactosidase (GP8) (Homo sapiens, UniProt P16278); experiment: β-Galactosidase activity in model cells (knockout mouse fibroblasts with transferred gene) cultured 4 days with substance; assay type: cell-based; design: made in house; host or cells: SV40-immortalized β-galactosidase knockout mouse skin fibroblasts
# T1 sequence (P16278 29-677): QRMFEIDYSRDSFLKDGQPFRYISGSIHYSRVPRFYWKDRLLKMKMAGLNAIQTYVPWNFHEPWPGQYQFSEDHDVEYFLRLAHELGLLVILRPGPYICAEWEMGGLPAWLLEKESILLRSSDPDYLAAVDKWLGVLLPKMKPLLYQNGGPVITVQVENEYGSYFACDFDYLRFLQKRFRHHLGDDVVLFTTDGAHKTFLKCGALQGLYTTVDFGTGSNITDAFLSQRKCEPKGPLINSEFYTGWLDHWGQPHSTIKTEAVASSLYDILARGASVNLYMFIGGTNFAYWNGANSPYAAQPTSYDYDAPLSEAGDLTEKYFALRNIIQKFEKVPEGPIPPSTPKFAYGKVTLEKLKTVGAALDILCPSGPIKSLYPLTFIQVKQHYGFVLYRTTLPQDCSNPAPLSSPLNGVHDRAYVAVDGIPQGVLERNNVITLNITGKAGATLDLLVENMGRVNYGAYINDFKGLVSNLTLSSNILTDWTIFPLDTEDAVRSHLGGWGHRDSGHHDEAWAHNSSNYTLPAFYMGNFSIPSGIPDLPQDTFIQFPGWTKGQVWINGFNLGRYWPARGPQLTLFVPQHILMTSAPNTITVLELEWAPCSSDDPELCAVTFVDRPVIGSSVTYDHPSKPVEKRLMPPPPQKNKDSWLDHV
# Source text: Cultured skin fibroblasts of a β-galactosidase-deficient knockout mouse was immortalized by introducing an SV40 viral gene, and enzyme genes integrated into pSV2neo and an expression vector were also introduced simultaneously, thereby establishing a model cell (Brain Dev., 23(5), 284-287, 2001). The genes used are human normal (GP8) and mutant β-galactosidase gene Y316C, G123R (infantile GM1-gangliosidosis), R201C (juvenile GM1-gangliosidosis), 151T, T82M, R201H, R263S, R457Q (adult GM1-gangliosidosis), W273L, Y83H, R482H and R482C (Morquio-B disease) (Hum. Genet., 93(2), 109-114, 1994).
# As a control substance, 0.5 mM N-(n-butyl)-deoxygalactonojirimycin (NB-DGJ: The Journal of Biological Chemistry, 269, 27108-27114 (1994)) was used, and the substance 18 of the present invention was used in an amount of 0.2 μM.
# Specifically, after culturing the model cell for 4 days using a cell culture medium (10% FCS DMEM) containing the substance 18 of the present invention, the resulting cells were recovered and diluted such that the amount of protein in the suspension became a predetermined level, and then enzyme activity in the diluted suspension was measured. Using 4-methylumbelliferyl-β-D-galactopyranoside as the fluorescent substrate, the enzyme activity during 30 minutes was measured at 37° C.
# [2] = target: T1, human normal β-galactosidase (GP8); experiment: Galactosidase inhibitory activity, enzyme from culture supernatant, 4-methylumbelliferyl-β-D-galactopyranoside substrate; assay type: biochemical; design: made in house; host or cells: SV40-immortalized β-galactosidase knockout mouse skin fibroblasts; Enzyme source was the supernatant after 24 h in NH4Cl medium, dialyzed and concentrated; settings: 30 minutes
# Method: Knockout mouse skin fibroblast introduced with a human normal β-galactosidase (GP8) cDNA (Biochem. Biophys. Res. Commun., 157(1), 238-244, 1988) and immortalized with an SV40 viral gene were cultured at 37° C. in an atmosphere of 5% CO2, using Dulbecco's modified Eagle's medium (to be referred to as “DMEM” hereinafter: manufactured by Gibco) containing 10% fetal calf serum (to be referred to as “FCS” hereinafter), and when the cells became 80% confluent, the medium was exchanged with FCS-free DMEM containing 10 mM of NH4Cl. After culturing for 24 hours, the supernatant was recovered and dialyzed against 10 mM phosphate buffer (pH=6.5) for 4 hours. Thereafter, the mixture was concentrated using VIVAPORE-20 (manufactured by Vivapore) and used as the enzyme source. Using 4-methylumbelliferyl-β-D-galactopyranoside as the fluorescent substrate, the enzyme activity during 30 minutes was measured in the presence or absence of the substance to be tested (Table 1). Final concentration of the substance 18 of the present invention was adjusted to 0.05, 0.125, 0.25, 0.5, 1, 2.5 or 5 μM.
# [3] = Safety observation during 1 week oral administration test in mice; settings: about 1.4 mg per day orally
# Method: That is, tap water containing 1 mM (about 0.28 mg/ml) of the substance 18 of the present invention was continuously administered for 1 week as drinking water to recombinant mice (3 month-old) prepared by transferring a human mutant β-galactosidase gene R201C into β-galactosidase deficient knockout mice. One week thereafter, the mice were sacrificed to excise the cerebrum, the cerebellum, the heart, the lungs, the liver, the spleen, the kidney, a muscle (femoral muscle) and plasma. Also, tail tissues were used for the purpose of verifying changes in the β-galactosidase activity in the same individual before and after the administration. Each organ was crushed under ice-cooling using a homogenizer, and then the suspension of crushed cells was centrifuged at 8,000×g for 30 minutes. Thereafter, the supernatant fraction was recovered and used as an enzyme solution. The amount of protein in this enzyme solution was measured by the Bradford method, and the β-galactosidase activity was measured. With regard to the measurement of β-galactosidase activity, the enzyme activity during 30 minutes was measured at 37° C. using 4-methylumbelliferyl-β-D-galactopyranoside as the fluorogenic substrate. […] Three animals were used in each group to calculate the mean value.
Compound,"enzyme activity, Control ([1]; transferred gene GP8, control substance 0.5 mM NB-DGJ)",activity at 0.05 µM ([2]; 0.050 umol/L substance) [%],activity at 0.125 µM ([2]; 0.125 umol/L substance) [%],activity at 0.25 µM ([2]; 0.250 umol/L substance) [%],activity at 0.5 µM ([2]; 0.500 umol/L substance) [%],activity at 1 µM ([2]; 1.000 umol/L substance) [%],activity at 2.5 µM ([2]; 2.500 umol/L substance) [%],activity at 5 µM ([2]; 5.000 umol/L substance) [%],health condition [3],"Relative ratio (×100%) ([1]; GP8, substance 18 vs control)","enzyme activity ([1]; transferred gene GP8, 0.2 μM, 4 days)"
"CCCCN1C[C@H](O)[C@@H](O)[C@@H](O)[C@H]1CO [Control, N-(n-butyl)-deoxygalactonojirimycin, reference compound]",74.94,,,,,,,,,,
"CCCCCCCCN[C@@H]1C=C(CO)[C@H](O)C(O)[C@@H]1O (stereo partly drawn) [Substance 18, N-octyl-5a-carba-α-L-arabino-hexo-5(5a)-enopyranosylamine]",,77,59.5,43.4,35.7,36,18.7,14.4,health condition was markedly good,1.05 ×100%,78.87
